From article PMC3814616, “BRAF inhibitors suppress apoptosis through off-target inhibition of JNK signaling” (eLife, 2013)

Key:
[1] = system: SRB1 cells; experiment: UV-induced apoptosis, FACS Annexin V+, TMRE-low; assay type: cell-based, human; conditions: 1 kJ/m^2 UVB, 1 μM, 24 hr, vs DMSO
[2] = system: COLO16 cells; experiment: UV-induced apoptosis, FACS Annexin V+, TMRE-low; assay type: cell-based, human; conditions: 1 kJ/m^2 UVB, 1 μM, 24 hr, vs DMSO
[3] = system: NHEK cells; experiment: UV-induced apoptosis, FACS Annexin V+, TMRE-low; assay type: cell-based, human; conditions: 1 kJ/m^2 UVB, 1 μM, 24 hr, vs DMSO
[4] = system: epidermal keratinocytes of C57BL/6 mice; experiment: Acute UVR-induced epidermal apoptosis in mouse skin; conditions: in vivo
Text: (§1) Cutaneous squamous cell carcinomas biopsied from patients treated with or without BRAF-inhibitor were obtained either under clinical trials (Roche) or separate IRB approval (LAB08-0750). Staining levels were quantified by counting positively labeled cells and dividing by the total area of the tumor tissue within each sample. To measure tumor areas, all samples were photographed, tumor cells outlined, and total pixel numbers calculated using included image analysis tools in Adobe Photoshop and standardized to a hemacytometer to convert to mm^2. To measure apoptosis in irradiated skin, pyknotic or dyskeratotic epidermal keratinocytes were counted and normalized to length (mm) of epidermis.

[5] = system: Hairless mice; experiment: UV-driven cSCC development in chronically-irradiated Hairless mice; assay type: in vivo, mouse
Text: We also used the Hairless mouse model of squamous cell carcinoma to assess whether PLX4720 would affect UV-driven tumor development. This is particularly relevant since it appears that UV exposure is an important initiating event in BRAFi-accelerated cSCC ([Su et al., 2012]). Unlike the DMBA/TPA model, in which lesions almost universally harbor Hras mutations ([Brown et al., 1990]), the Hairless model has a very low frequency of Ras mutation in papillomas and carcinomas ([van Kranen et al., 1995]), more similar to sporadic human cSCC. […] Within 20 days of administration of drug, hyperkeratotic papules were visible on the backs of PLX4720-treated animals (Figure 5A,B), which steadily grew into cSCC over the following several weeks (Figure 5C,D). Within this period of 150 days (78 days of drug treatment), control-treated mice had not yet developed any visible lesions (Figure 5E). […]
Figure 5. […] (A and B) cDNA was reverse-transcribed from total RNA, PCR-amplified with the above primers (B) and analyzed by Sanger sequencing for mutations in both directions. No mutations in Hras, Kras, or Nras were detected in any of the papillomas (n = 5) or carcinomas (n = 3) isolated from PLX4720-treated mice. […]

[6] = system: E1A and HRAS^G12V-transformed wild-type (WT) MEFs; experiment: Soft agar colony formation; assay type: cell-based, mouse; conditions: 0.2 μM and 1.0 μM, 4–6 weeks
[7] = system: HRAS^G12V-transformed HaCaT cells (SCR, TKD); experiment: Soft agar colony formation; assay type: cell-based, human; conditions: 1.0 μM, SCR and TKD cells
[8] = system: A375 and WM35 BRAF^V600E melanoma cell lines; experiment: Growth of BRAF^V600E melanoma cell lines; assay type: cell-based, human; conditions: bioequivalent doses: dabrafenib 0.05 μM, PLX4720 1.0 μM
[9] = target: T1, MST1 (STK4) (Homo sapiens, UniProt Q13043); design: method as in Tsai et al., 2008; conditions: ref Tsai et al., 2008; read-out: Published biochemical IC50; cited from earlier work
T1 construct: purchased KINOMEscan (DiscoveRx), San Diego, CA
T1 sequence (Q13043 1-487): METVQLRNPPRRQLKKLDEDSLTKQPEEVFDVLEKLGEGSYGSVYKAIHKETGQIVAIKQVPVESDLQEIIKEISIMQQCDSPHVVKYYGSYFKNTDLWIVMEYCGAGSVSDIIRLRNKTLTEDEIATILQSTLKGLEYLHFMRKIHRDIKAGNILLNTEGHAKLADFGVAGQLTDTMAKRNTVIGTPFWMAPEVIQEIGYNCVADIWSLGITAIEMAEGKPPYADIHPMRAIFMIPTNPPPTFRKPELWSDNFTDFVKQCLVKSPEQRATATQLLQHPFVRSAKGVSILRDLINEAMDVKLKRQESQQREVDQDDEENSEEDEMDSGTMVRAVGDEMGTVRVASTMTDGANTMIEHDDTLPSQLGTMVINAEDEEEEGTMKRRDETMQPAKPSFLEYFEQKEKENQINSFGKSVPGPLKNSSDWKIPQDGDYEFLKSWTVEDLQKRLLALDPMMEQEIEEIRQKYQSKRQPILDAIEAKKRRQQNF

[10] = system: COLO16 cells; experiment: Doxorubicin-induced apoptosis, FACS; conditions: 1 μM, 24 hr
[11] = system: Noxa mRNA; experiment: qPCR of epidermis of irradiated mice; conditions: oral gavage 40–80 mg/kg twice a day, 10 kJ/m^2 UVB
[12] = system: ZAK (T82Q)-expressing HaCaT cells; experiment: UV-induced apoptosis in HaCaT cells overexpressing ZAK (WT) or gatekeeper mutant ZAK (T82Q); conditions: 1 μM, UVB 720 J/m^2, 24 hr
[13] = target: T2, full length MAP4K5 (Homo sapiens, UniProt Q9Y4K4); experiment: In vitro kinase assay (Reaction Biology); assay type: biochemical
T2 construct: and full length MAP4K5 (MBP substrate, ATP 10 μM) (Reaction Biology); purchased Reaction Biology
T2 sequence (Q9Y4K4 whole entry): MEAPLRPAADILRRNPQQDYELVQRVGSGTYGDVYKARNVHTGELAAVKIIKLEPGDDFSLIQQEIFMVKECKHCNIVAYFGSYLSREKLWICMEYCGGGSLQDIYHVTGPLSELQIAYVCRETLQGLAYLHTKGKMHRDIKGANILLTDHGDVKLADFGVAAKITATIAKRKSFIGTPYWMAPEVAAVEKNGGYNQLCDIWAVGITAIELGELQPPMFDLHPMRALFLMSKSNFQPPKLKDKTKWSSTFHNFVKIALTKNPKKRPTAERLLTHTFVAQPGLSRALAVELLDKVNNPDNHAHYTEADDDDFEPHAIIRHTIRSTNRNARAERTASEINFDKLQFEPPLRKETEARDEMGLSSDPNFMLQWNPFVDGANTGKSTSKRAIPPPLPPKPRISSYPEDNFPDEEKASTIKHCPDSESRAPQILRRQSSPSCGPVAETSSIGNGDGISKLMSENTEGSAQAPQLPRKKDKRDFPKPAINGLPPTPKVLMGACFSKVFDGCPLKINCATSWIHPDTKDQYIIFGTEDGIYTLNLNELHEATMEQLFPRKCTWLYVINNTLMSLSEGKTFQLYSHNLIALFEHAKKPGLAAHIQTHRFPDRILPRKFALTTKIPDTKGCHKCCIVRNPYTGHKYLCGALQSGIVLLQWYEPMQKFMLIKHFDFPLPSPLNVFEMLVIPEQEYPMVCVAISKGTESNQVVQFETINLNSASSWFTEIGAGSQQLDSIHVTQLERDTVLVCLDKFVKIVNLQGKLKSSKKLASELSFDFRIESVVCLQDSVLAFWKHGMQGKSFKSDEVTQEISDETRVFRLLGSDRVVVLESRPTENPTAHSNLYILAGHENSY

[14] = target: T3, ASK1 (Homo sapiens, UniProt Q99683); experiment: In vitro kinase assay (Reaction Biology); assay type: biochemical; conditions: run in parallel
T3 construct: purchased Reaction Biology
T3 sequence (Q99683 whole entry): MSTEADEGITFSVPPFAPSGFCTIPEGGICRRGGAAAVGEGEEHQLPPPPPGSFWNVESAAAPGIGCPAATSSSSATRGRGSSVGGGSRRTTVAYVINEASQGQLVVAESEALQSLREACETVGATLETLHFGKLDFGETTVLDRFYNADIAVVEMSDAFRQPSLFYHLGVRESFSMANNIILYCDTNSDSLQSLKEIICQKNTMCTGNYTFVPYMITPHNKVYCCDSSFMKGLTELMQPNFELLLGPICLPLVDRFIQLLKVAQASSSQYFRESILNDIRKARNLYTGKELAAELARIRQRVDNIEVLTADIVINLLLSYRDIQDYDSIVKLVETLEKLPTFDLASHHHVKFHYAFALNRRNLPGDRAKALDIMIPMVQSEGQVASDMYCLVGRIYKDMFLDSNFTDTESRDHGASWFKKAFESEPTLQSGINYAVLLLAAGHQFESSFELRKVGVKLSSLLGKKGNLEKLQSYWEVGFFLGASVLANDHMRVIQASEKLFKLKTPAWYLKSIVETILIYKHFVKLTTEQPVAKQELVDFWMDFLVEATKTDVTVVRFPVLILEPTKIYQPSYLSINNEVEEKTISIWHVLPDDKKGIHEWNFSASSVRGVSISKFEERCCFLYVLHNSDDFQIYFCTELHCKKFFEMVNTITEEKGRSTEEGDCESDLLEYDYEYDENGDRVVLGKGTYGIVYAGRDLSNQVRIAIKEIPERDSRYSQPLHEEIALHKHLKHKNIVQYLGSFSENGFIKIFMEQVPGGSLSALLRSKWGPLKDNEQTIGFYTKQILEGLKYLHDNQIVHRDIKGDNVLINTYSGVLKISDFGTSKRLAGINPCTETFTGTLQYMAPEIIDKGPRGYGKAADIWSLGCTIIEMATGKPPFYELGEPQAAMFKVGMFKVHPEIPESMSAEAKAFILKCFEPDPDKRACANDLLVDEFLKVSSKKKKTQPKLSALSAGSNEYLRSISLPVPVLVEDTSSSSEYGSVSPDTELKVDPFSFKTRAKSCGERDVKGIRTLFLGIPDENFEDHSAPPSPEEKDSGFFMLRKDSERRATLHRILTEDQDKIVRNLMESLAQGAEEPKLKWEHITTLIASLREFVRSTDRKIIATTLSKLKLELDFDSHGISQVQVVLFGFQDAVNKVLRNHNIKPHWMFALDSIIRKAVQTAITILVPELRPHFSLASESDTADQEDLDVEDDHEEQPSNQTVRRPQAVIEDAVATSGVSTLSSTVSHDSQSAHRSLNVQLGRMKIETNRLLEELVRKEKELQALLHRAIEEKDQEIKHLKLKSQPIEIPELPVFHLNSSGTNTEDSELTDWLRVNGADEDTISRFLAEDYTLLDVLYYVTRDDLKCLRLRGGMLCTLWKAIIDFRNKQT
Text: . Average percent inhibition was reported. […]

[15] = system: cleaved caspase-3; experiment: Immunohistochemistry of cSCC from vemurafenib-treated patients vs sporadic cSCC; assay type: in vivo, human; conditions: stained cells per mm^2 tumor, p=0.042
Protocol: (§2) Phospho-JNK and cleaved caspase-3 expression were assessed by immunohistochemistry and then quantified following normalization by unit area (mm^2) of tumor tissue (malignant keratinocytes) only (Figure 4A–D, Figure 4—figure supplement 1).
as §1

[16] = system: phospho-JNK; experiment: as above; assay type: in vivo, human; conditions: stained cells per mm^2 tumor, p=0.013
Protocol: as §2, §1

Compound	suppression of UV-induced apoptosis [1]	suppression of UV-induced apoptosis [2]	suppression of UV-induced apoptosis [3]	apoptotic epidermal keratinocytes in irradiated skin [4] [apoptotic cells/mm skin]	reduction in latency of papillomas and cSCC ([5]; chronically-irradiated Hairless mice)	time from start of drug to visible hyperkeratotic papules ([5]; drug-impregnated chow from day 72, 12.5 kJ/m^2 per week UVB) [days]	colony formation [6]	colony formation [7]	growth of A375 and WM35 cells [8]	IC50 [9] [nM]	doxorubicin-induced apoptosis (Annexin V+, TMRE-low cells) [10]	UV-induced Noxa mRNA expression [11]	apoptosis of drug-treated ZAK (T82Q)-expressing cells as share of the levels in untreated cells [12] [%]	IC50 ([13]; MBP substrate, ATP 10 μM, read-out: biochemical IC50) [nM]	remaining activity at 1 µM ([13]; at 1 μM, read-out: residual activity) [%]	inhibition of ASK1 [14]	cleaved caspase-3 expression in cSCC of treated patients vs sporadic cSCC [15]	phospho-JNK expression in cSCC of treated patients vs sporadic cSCC [16]
CCCS(=O)(=O)Nc1ccc(F)c(C(=O)c2c[nH]c3ncc(Cl)cc23)c1F [PLX4720]	at least 70%	at least 70%	at least 70%	4.9 ± 0.3	at least 10 weeks	≤ 20	significant colony formation advantage	significant colony formation advantage	suppress the growth	> 5000	significant decrease in apoptosis	significantly dampened	76.9	–	–	–	–	–
CCCS(=O)(=O)Nc1ccc(F)c(C(=O)c2c[nH]c3ncc(-c4ccc(Cl)cc4)cc23)c1F [vemurafenib]	–	–	–	–	–	–	–	–	–	–	–	–	–	354 ± 26	25.7 ± 0.6	no significant inhibition	significant reductions	significant reductions
